Laboratory results published in patent US20250129088A1, “CEREBLON E3 UBIQUITIN LIGASE INHIBITOR” (Gan & Lee Pharmaceuticals Co., Ltd., priority 2022, published 2025).
pIC50: −log10 of the molar value.

Key:
Type in all cases: cell-based
MV-4-11 cells = experiment: MV-4-11 cell proliferation inhibition, CCK-8; conditions: Homo sapiens, MV4-11, 96 h, MV-4-11, 4 days
Method: The complete medium required for MV-4-11 cells is IMDM (ATCC, Product number: 30-2005) basal medium containing 10% fetal bovine serum. MV-4-11 cells were seeded in a 96-well plate at a density of 7,500 cells/well, and different concentrations of the compound of the present invention and positive control samples Alisertib (source: Bide Pharmaceuticals), Palbociclib (source: Bide Pharmaceuticals), Ibrutinib (source Bide Pharmaceuticals) treated cells. The cells were incubated in a 37° C., 5% CO2 cell incubator for 4 days. Cell viability was detected using the CCK-8 kit (Beyotime, Product number: C0040) according to the manufacturer's instructions. According to the inhibition rate, GraphPad Prism software was used to calculate the IC50 value of each compound for 4 days, and the results are shown in Table 6-8.

LNCaP FGC cells = experiment: LNCaP FGC cell proliferation inhibition, CCK-8; conditions: Homo sapiens, 96 h, 4 days
Text: The complete medium required for LNCaP FGC cells is RPMI 1640 (ATCC, Product number: 30-2001) basal medium containing 10% fetal calf serum. […] Cell viability was detected using the CCK-8 kit (Beyotime, Product number: C0040) according to the manufacturer's instructions.

VCaP cells = experiment: VCaP cell proliferation inhibition, CCK-8; conditions: Homo sapiens, 168 h, 7 days
Text: The complete medium required for VCaP cells is DMEM high glucose (Gibco, Product number: 11995-065) basal medium containing 10% fetal bovine serum. […] Cell viability was detected using the CCK-8 kit (Beyotime, Product number: C0040) according to the manufacturer's instructions.

[1] = Table 6, positive control Alisertib
[2] = Table 7, positive control Palbociclib

Structure (SMILES) | pIC50 (MV-4-11 cells; [1]) | pIC50 (MV-4-11 cells; [2]) | pIC50 (LNCaP FGC cells) | pIC50 (VCaP cells)
COc1cc(Nc2ncc3c(n2)-c2ccc(Cl)cc2C(c2c(F)cccc2OC)=NC3)ccc1C(=O)N1CCC2(CC1)COc1cc3c(cc1O2)CN(C1CCC(=O)NC1=O)C3=O (centres unmarked) [PROTAC 2, 3-(1-(4-((9-chloro-7-(2-fluoro-6-methoxyphenyl)-5H-benzo[c]pyrimido[4,5-e]azepine-2-yl)amino)-2-methoxybenzoyl)-6′-oxo-6′,8′-dihydro-3′H,7′H-spiro[piperidine-4,2′-[1,4]dioxino[2,3-f]isoindole]-7′-yl)piperidine-2,6-dione] | 7.09 |  |  | 
COc1cc(Nc2ncc3c(n2)-c2ccc(Cl)cc2C(c2c(F)cccc2OC)=NC3)ccc1C(=O)NCCOCCC(=O)N1CCC2(CCc3cc4c(cc3O2)C(=O)N(C2CCC(=O)NC2=O)C4=O)CC1 (centres unmarked) [PROTAC 5, 4-((9-chloro-7-(2-fluoro-6-methoxyphenyl)-5H-benzo[c]pyrimido[4,5-e]azepine-2-yl)amino)-N-(2-(3-(7′-(2,6-dioxopiperidin-3-yl)-6′,8′-dioxo-4′,6′,7′,8′-tetrahydro-3′H-spiro[piperidine-4,2′-pyrano[2,3-f]isoindol]-1-yl)-3-oxopropoxy)ethyl)-2-methoxybenzamide] | 6.38 |  |  | 
COc1cc(Nc2ncc3c(n2)-c2ccc(Cl)cc2C(c2c(F)cccc2OC)=NC3)ccc1C(=O)NCCOCCC(=O)N1CCC2(CC1)COc1cc3c(cc1C2)C(=O)N(C1CCC(=O)NC1=O)C3=O (centres unmarked) [PROTAC 6, 4-((9-chloro-7-(2-fluoro-6-methoxyphenyl)-5H-benzo[c]pyrimido[4,5-e]azepine-2-yl)amino)-N-(2-(3-(7′-(2,6-dioxopiperidin-3-yl)-6′,8′-dioxo-4′,6′,7′,8′-tetrahydro-2′H-spiro[piperidine-4,3′-pyrano[2,3-f]isoindol]-1-yl)-3-oxopropoxy)ethyl)-2-methoxybenzamide] | 6.49 |  |  | 
COc1cc(Nc2ncc3c(n2)-c2ccc(Cl)cc2C(c2c(F)cccc2OC)=NC3)ccc1C(=O)NCCOCCC(=O)N1CC2(CCc3cc4c(cc3O2)C(=O)N(C2CCC(=O)NC2=O)C4=O)C1 (centres unmarked) [PROTAC 8, 4-((9-chloro-7-(2-fluoro-6-methoxyphenyl)-5H-benzo[c]pyrimido[4,5-e]azepine-2-yl)amino)-N-(2-(3-(7′-(2,6-dioxopiperidin-3-yl)-6′,8′-dioxo-4′,6′,7′,8′-tetrahydro-3′H-spiro[azetidine-3,2′-pyrano[2,3-f]isoindol]-1-yl)-3-oxopropoxy)ethylbase)-2-methoxybenzamide] | 6.42 |  |  | 
CC(=O)c1c(C)c2cnc(Nc3ccc(N4CCN(CCOCCC(=O)N5CCC6(CCc7cc8c(cc7O6)C(=O)N(C6CCC(=O)NC6=O)C8=O)CC5)CC4)cn3)nc2n(C2CCCC2)c1=O (centres unmarked) [PROTAC 38, 1-(3-(2-(4-(6-((6-acetyl-8-cyclopentyl-5-methyl-7-oxo-7,8-dihydropyridone[2,3-d]pyrimidin-2-yl)amino)pyridin-3-yl)piperazin-1-yl)ethoxy)propionyl)-7′-(2,6-dioxopiperidin-3-yl)-3′,4′-dihydro-6′H-spiro[piperidine-4,2′-pyrano[2,3-f]isoindole]-6′,8′(7′H)-dione] |  | 5.30 |  | 
N#Cc1ccc(O[C@H]2CC[C@H](NC(=O)c3ccc(N4CCC(CN5CC6(CCc7cc8c(cc7O6)C(=O)N(C6CCC(=O)NC6=O)C8=O)C5)CC4)nn3)CC2)cc1Cl (some centres unmarked) [PROTAC 60] |  |  | 6.03 | 5.92
N#Cc1ccc(O[C@H]2CC[C@H](NC(=O)c3ccc(N4CCC5(CC4)CC(N4CCC6(CCc7cc8c(cc7O6)C(=O)N(C6CCC(=O)NC6=O)C8=O)CC4)C5)nn3)CC2)cc1Cl (some centres unmarked) [PROTAC 61] |  |  | 5.66 | 7.10
N#Cc1ccc(O[C@H]2CC[C@H](NC(=O)c3ccc(N4CC(N5CCC6(CCc7cc8c(cc7O6)CN(C6CCC(=O)NC6=O)C8=O)CC5)C4)nn3)CC2)cc1Cl (some centres unmarked) [PROTAC 62] |  |  | 5.94 | 7.00
N#Cc1ccc(O[C@H]2CC[C@H](NC(=O)c3ccc(N4CCC5(CC4)CC(N4CCC6(CC4)COc4cc7c(cc46)C(=O)N(C4CCC(=O)NC4=O)C7=O)C5)nn3)CC2)cc1Cl (some centres unmarked) [PROTAC 63] |  |  | 6.77 | 7.29
N#Cc1ccc(O[C@H]2CC[C@H](NC(=O)c3ccc(N4CC(N5CCC6(CC5)COc5cc7c(cc5C6)C(=O)N(C5CCC(=O)NC5=O)C7=O)C4)nn3)CC2)cc1Cl (some centres unmarked) [PROTAC 64, N-((1r,4r)-4-(3-chloro-4-cyanophenoxy)cyclohexyl)-6-(3-(7′-(2,6-dioxopiperidin-3-yl)-6′,8′-dioxo-4′,6′,7′,8′-tetrahydro-2′H-spiro[piperidine-4,3′-pyran[2,3-f]isoindole]-1-yl)azetidin-1-yl]pyridazine-3-carboxamide] |  |  | 6.89 | 6.02
N#Cc1ccc(O[C@H]2CC[C@H](NC(=O)c3ccc(N4CCC(CN5CCC6(CC5)COc5cc7c(cc5O6)CN(C5CCC(=O)NC5=O)C7=O)CC4)nn3)CC2)cc1Cl (some centres unmarked) [PROTAC 65] |  |  | 5.63 | 8.96
N#Cc1ccc(O[C@H]2CC[C@H](NC(=O)c3ccc(N4CCC(CN5CCC6(CC5)Cc5cc7c(cc5O6)C(=O)N(C5CCC(=O)NC5=O)C7=O)CC4)nn3)CC2)cc1Cl (some centres unmarked) [PROTAC 66, N-((1r,4r)-4-(3-chloro-4-cyanophenoxy)cyclohexyl)-6-(4-((6-(2,6-dioxopiperidine-3-yl)-5,7-dioxo-3,5,6,7-tetrahydrospiro[furo[2,3-f]isoindole-2,4′-piperidinyl]-1′-yl)methyl)piperidin-1-yl) pyridazine-3-carboxamide] |  |  | 5.52 | 7.30
N#Cc1ccc(O[C@H]2CC[C@H](NC(=O)c3ccc(N4CC(N5CCC6(CC5)Cc5cc7c(cc5O6)C(=O)N(C5CCC(=O)NC5=O)C7=O)C4)nn3)CC2)cc1Cl (some centres unmarked) [PROTAC 67, N-((1r,4r)-4-(3-chloro-4-cyanophenoxy)cyclohexyl)-6-(3-(6-(2,6-dioxypiperidin-3-yl)-5,7-dioxo-3,5,6,7-tetrahydrospiro[furo[2,3-f]isoindole-2,4′-piperidin]-1′-yl)azetidin-1-yl)pyridazine-3-carboxamide] |  |  | 5.21 | 5.19
CC1(C)C(=O)N(c2ccc(C#N)c(C(F)(F)F)c2)C(=S)N1c1ccc(C(=O)N2CCC(F)(CN3CC4(CCc5cc6c(cc5O4)C(=O)N(C4CCC(=O)NC4=O)C6)C3)CC2)c(F)c1 (centres unmarked) [PROTAC 68] |  |  | 5.41 | 7.52
CC1(C)C(=O)N(c2ccc(C#N)c(C(F)(F)F)c2)C(=S)N1c1ccc(C(=O)N2CCC(CN3CCC4(CC3)COc3cc5c(cc3C4)C(=O)N(C3CCC(=O)NC3=O)C5=O)CC2)c(F)c1 (centres unmarked) [PROTAC 69] |  |  | 5.47 | 5.37
CC1(C)C(=O)N(c2ccc(C#N)c(C(F)(F)F)c2)C(=S)N1c1ccc(C(=O)N2CC(CN3CCC4(CCc5cc6c(cc5O4)C(=O)N(C4CCC(=O)NC4=O)C6=O)CC3)C2)c(F)c1 (centres unmarked) [PROTAC 71] |  |  |  | 5.34
CC1(C)C(=O)N(c2ccc(C#N)c(C(F)(F)F)c2)C(=S)N1c1ccc(C(=O)N2CCC(N3CCC4(CC3)COc3cc5c(cc3C4)C(=O)N(C3CCC(=O)NC3=O)C5=O)CC2)c(F)c1 (centres unmarked) [PROTAC 78, 4-(3-(4-(4-(7′-(2,6-dioxopiperidin-3-yl)-6′,8′-dioxo-4′,6′,7′,8′-tetrahydro-2′H-spiro[piperidine-4,3′-pyrano[2,3-f]isoindol]-1-yl)piperidine-1-carbonyl)-3-fluorophenyl)-4,4-dimethyl-5-oxo-2-thioimidazolidin-1-yl)-2-(trifluoromethyl)benzonitrile] |  |  |  | 5.57
CC1(C)C(=O)N(c2ccc(C#N)c(C(F)(F)F)c2)C(=S)N1c1ccc(C(=O)N2CC3(CC(N4CCC5(CC4)COc4cc6c(cc45)C(=O)N(C4CCC(=O)NC4=O)C6=O)C3)C2)c(F)c1 (centres unmarked) [PROTAC 79, 4-(3-(4-(6-(6-(2,6-dioxopiperidin-3-yl)-5,7-dioxo-6,7-dihydro-2H,5H-spiro[furo[2,3-f]isoindole-3,4′-piperidin]-1′-yl)-2-azaspiro[3.3]heptane-2-carbonyl)-3-fluorophenyl)-4,4-dimethyl-5-oxo-2-thioimidazolidin-1-yl)-2-(trifluoromethyl)benzonitrile] |  |  |  | 5.39
CC1(C)C(=O)N(c2ccc(C#N)c(C(F)(F)F)c2)C(=S)N1c1ccc(C(=O)N2CC(N3CCC4(CC3)COc3cc5c(cc34)C(=O)N(C3CCC(=O)NC3=O)C5=O)C2)c(F)c1 (centres unmarked) [PROTAC 81, 4-(3-(4-(3-(6-(2,6-dioxopiperidin-3-yl)-5,7-dioxo-6,7-dihydro-2H,5H-spiro[furo[2,3-f]isoindole-3,4′-piperidin]-1′-yl)azetidine-1-carbonyl)-3-fluorophenyl)-4,4-dimethyl-5-oxo-2-thioimidazolidin-1-yl)-2-(trifluoromethyl)benzonitrile] |  |  |  | 5.02
CC1(C)C(=O)N(c2ccc(C#N)c(C(F)(F)F)c2)C(=S)N1c1ccc(C(=O)N2CCC(F)(CN3CCC4(CCc5cc6c(cc5O4)C(=O)N(C4CCC(=O)NC4=O)C6=O)CC3)CC2)c(F)c1 (centres unmarked) [PROTAC 82] |  |  |  | 5.89
CC1(C)C(=O)N(c2ccc(C#N)c(C(F)(F)F)c2)C(=S)N1c1ccc(C(=O)N2CCC(CN3CCC4(CCc5cc6c(cc5O4)C(=O)N(C4CCC(=O)NC4=O)C6=O)CC3)CC2)c(F)c1 (centres unmarked) [PROTAC 84] |  |  |  | 5.42
CC(=O)c1c(C)c2cnc(Nc3ccc(N4CCNCC4)cn3)nc2n(C2CCCC2)c1=O [Palbociclib, reference compound] |  | 5.68 |  | 
